# Test results reported in US9738634B2, “Heterocyclic amide compound and herbicide” (SYNGENTA PARTICIPATIONS AG, priority 2013, dated 2017).
# Columns and labels:
# Format in all cases: in vivo
# barnyard grass [1] = test: Test Example 1: weedkilling efficacy, preemergent weed treatment in the submerged state; A: barnyard grass; conditions: treatment dosage 252 g/ha
# Procedure, shortened: (§1)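 Pre-emergence paddy test: weed seeds sown in submerged alluvial soil (4 cm water), 2.5-leaf rice transplanted, water-diluted emulsion applied to water surface at sowing at stated g/ha. Scored at 3 weeks, greenhouse 25–30 °C.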
# wheat [2] = test: Test Example 4: foliar treatment, effect on crop; e: wheat; conditions: treatment dosage 315 g/ha
# Procedure, shortened: (§2)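 Seeds are spot-sown into sterilized diluvial soil and covered with about 1.5 cm of soil. After 14 days' greenhouse growth at 25 to 30° C, plants are sprayed on stems and leaves with diluted emulsion at the stated g/ha rate, then scored at 3 weeks.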
# Italian ryegrass [3] = test: Test Example 4: weedkilling efficacy by foliar treatment; I: Italian ryegrass; conditions: treatment dosage 315 g/ha
# Procedure, shortened: as §2
# birds-eye speedwell [4] = test: Test Example 4: weedkilling efficacy by foliar treatment; p: birds-eye speedwell; conditions: treatment dosage 315 g/ha
# Procedure, shortened: as §2
# corn [5] = test: Test Example 3: soil treatment, effect on crop; c: corn; conditions: treatment dosage 315 g/ha
# Procedure, shortened: (§3)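 Crop and weed responses were judged three weeks after a uniform surface spray of the water-diluted emulsion at the given g/ha rate. Seeds sat beneath about 1.5 cm of sterilized diluvial soil, and boxes stood in a greenhouse at 25 to 30° C.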
# black-grass [6] = test: Test Example 4: weedkilling efficacy by foliar treatment; H: black-grass; conditions: treatment dosage 315 g/ha
# Procedure, shortened: as §2
# chickweed [7] = test: Test Example 4: weedkilling efficacy by foliar treatment; N: chickweed; conditions: treatment dosage 315 g/ha
# Procedure, shortened: as §2
# oval-leafed pondweed [8] = test: Test Example 1: weedkilling efficacy, preemergent weed treatment in the submerged state; C: oval-leafed pondweed; conditions: treatment dosage 252 g/ha
# Procedure, shortened: as §1
# wild oat [9] = test: Test Example 4: weedkilling efficacy by foliar treatment; G: wild oat; conditions: treatment dosage 315 g/ha
# Procedure, shortened: as §2
# birds-eye speedwell [10] = test: Test Example 3: weedkilling efficacy through soil treatment; p: birds-eye speedwell; conditions: treatment dosage 315 g/ha
# Procedure, shortened: as §3
# Indian mallow [11] = test: Test Example 4: weedkilling efficacy by foliar treatment; K: Indian mallow; conditions: treatment dosage 315 g/ha
# Procedure, shortened: as §2
# chickweed [12] = test: Test Example 3: weedkilling efficacy through soil treatment; N: chickweed; conditions: treatment dosage 315 g/ha
# Procedure, shortened: as §3
# wheat [13] = test: Test Example 3: soil treatment, effect on crop; e: wheat; conditions: treatment dosage 315 g/ha
# Procedure, shortened: as §3
# barnyard grass [14] = test: Test Example 4: weedkilling efficacy by foliar treatment; F: barnyard grass; conditions: treatment dosage 315 g/ha
# Procedure, shortened: as §2
# rapeseed [15] = test: Test Example 3: soil treatment, effect on crop; g: rapeseed; conditions: treatment dosage 315 g/ha
# Procedure, shortened: as §3
# catchweed [16] = test: Test Example 4: weedkilling efficacy by foliar treatment; O: catchweed; conditions: treatment dosage 315 g/ha
# Procedure, shortened: as §2
# crabgrass [17] = test: Test Example 3: weedkilling efficacy through soil treatment; D: crabgrass; conditions: treatment dosage 315 g/ha
# Procedure, shortened: as §3
# directly sown rice [18] = test: Test Example 3: soil treatment, effect on crop; b: directly sown rice; conditions: treatment dosage 315 g/ha
# Procedure, shortened: as §3
# transplanted rice = test: Test Example 1: preemergent weed treatment in the submerged state, effect on crop; a: transplanted rice; conditions: treatment dosage 252 g/ha
# Procedure, shortened: as §1
# wild oat [19] = test: Test Example 3: weedkilling efficacy through soil treatment; G: wild oat; conditions: treatment dosage 315 g/ha
# Procedure, shortened: as §3
# green foxtail [20] = test: Test Example 3: weedkilling efficacy through soil treatment; E: green foxtail; conditions: treatment dosage 315 g/ha
# Procedure, shortened: as §3
# soybean [21] = test: Test Example 4: foliar treatment, effect on crop; d: soybean; conditions: treatment dosage 315 g/ha
# Procedure, shortened: as §2
# common wind-grass [22] = test: Test Example 3: weedkilling efficacy through soil treatment; J: common wind-grass; conditions: treatment dosage 315 g/ha
# Procedure, shortened: as §3
# soybean [23] = test: Test Example 3: soil treatment, effect on crop; d: soybean; conditions: treatment dosage 315 g/ha
# Procedure, shortened: as §3
# redroot pigweed [24] = test: Test Example 4: weedkilling efficacy by foliar treatment; L: redroot pigweed; conditions: treatment dosage 315 g/ha
# Procedure, shortened: as §2
# catchweed [25] = test: Test Example 3: weedkilling efficacy through soil treatment; O: catchweed; conditions: treatment dosage 315 g/ha
# Procedure, shortened: as §3
# bulrush [26] = test: Test Example 2: weedkilling efficacy, growth period weed treatment in the submerged state; B: bulrush; conditions: treatment dosage 252 g/ha
# Procedure, shortened: (§4)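 Seedlings at 1-2 leaves in 4 cm-deep submerged alluvial soil received emulsion formulations on the water surface, dosed per hectare; effects were judged 3 weeks on.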
# beet [27] = test: Test Example 3: soil treatment, effect on crop; f: beet; conditions: treatment dosage 315 g/ha
# Procedure, shortened: as §3
# rapeseed [28] = test: Test Example 4: foliar treatment, effect on crop; g: rapeseed; conditions: treatment dosage 315 g/ha
# Procedure, shortened: as §2
# barnyard grass [29] = test: Test Example 3: weedkilling efficacy through soil treatment; F: barnyard grass; conditions: treatment dosage 315 g/ha
# Procedure, shortened: as §3
# barnyard grass [30] = test: Test Example 2: weedkilling efficacy, growth period weed treatment in the submerged state; A: barnyard grass; conditions: treatment dosage 252 g/ha
# Procedure, shortened: as §4
# green foxtail [31] = test: Test Example 4: weedkilling efficacy by foliar treatment; E: green foxtail; conditions: treatment dosage 315 g/ha
# Procedure, shortened: as §2
# Italian ryegrass [32] = test: Test Example 3: weedkilling efficacy through soil treatment; I: Italian ryegrass; conditions: treatment dosage 315 g/ha
# Procedure, shortened: as §3
# common wind-grass [33] = test: Test Example 4: weedkilling efficacy by foliar treatment; J: common wind-grass; conditions: treatment dosage 315 g/ha
# Procedure, shortened: as §2
# directly sown rice [34] = test: Test Example 4: foliar treatment, effect on crop; b: directly sown rice; conditions: treatment dosage 315 g/ha
# Procedure, shortened: as §2
# Indian mallow [35] = test: Test Example 3: weedkilling efficacy through soil treatment; K: Indian mallow; conditions: treatment dosage 315 g/ha
# Procedure, shortened: as §3
# bulrush [36] = test: Test Example 1: weedkilling efficacy, preemergent weed treatment in the submerged state; B: bulrush; conditions: treatment dosage 252 g/ha
# Procedure, shortened: as §1
# oval-leafed pondweed [37] = test: Test Example 2: weedkilling efficacy, growth period weed treatment in the submerged state; C: oval-leafed pondweed; conditions: treatment dosage 252 g/ha
# Procedure, shortened: as §4
# redroot pigweed [38] = test: Test Example 3: weedkilling efficacy through soil treatment; L: redroot pigweed; conditions: treatment dosage 315 g/ha
# Procedure, shortened: as §3
# beet [39] = test: Test Example 4: foliar treatment, effect on crop; f: beet; conditions: treatment dosage 315 g/ha
# Procedure, shortened: as §2
# black-grass [40] = test: Test Example 3: weedkilling efficacy through soil treatment; H: black-grass; conditions: treatment dosage 315 g/ha
# Procedure, shortened: as §3
# crabgrass [41] = test: Test Example 4: weedkilling efficacy by foliar treatment; D: crabgrass; conditions: treatment dosage 315 g/ha
# Procedure, shortened: as §2
# corn [42] = test: Test Example 4: foliar treatment, effect on crop; c: corn; conditions: treatment dosage 315 g/ha
# Procedure, shortened: as §2
smiles,measurement,setting,value
CC1=C(c2ccccc2)C(=O)N(C(C)(C)C(=O)Nc2cc(F)cc(F)n2)CO1 [B-2-33],A (barnyard grass) weedkilling efficacy grade,barnyard grass [1],"5 (weed kill ratio 90% or more, (practically complete withering))"
same,e (wheat) effect on crop grade,wheat [2],"4 (weed kill ratio 70% or more, less than 90%)"
same,I (Italian ryegrass) weedkilling efficacy grade,Italian ryegrass [3],"5 (weed kill ratio 90% or more, (practically complete withering))"
same,P (birds-eye speedwell) weedkilling efficacy grade,birds-eye speedwell [4],"5 (weed kill ratio 90% or more, (practically complete withering))"
same,c (corn) effect on crop grade,corn [5],"3 (weed kill ratio 40% or more, less than 70%)"
same,H (black-grass) weedkilling efficacy grade,black-grass [6],"5 (weed kill ratio 90% or more, (practically complete withering))"
same,N (chickweed) weedkilling efficacy grade,chickweed [7],"4 (weed kill ratio 70% or more, less than 90%)"
same,C (oval-leafed pondweed) weedkilling efficacy grade,oval-leafed pondweed [8],"5 (weed kill ratio 90% or more, (practically complete withering))"
same,G (wild oat) weedkilling efficacy grade,wild oat [9],"5 (weed kill ratio 90% or more, (practically complete withering))"
same,P (birds-eye speedwell) weedkilling efficacy grade,birds-eye speedwell [10],"5 (weed kill ratio 90% or more, (practically complete withering))"
same,K (Indian mallow) weedkilling efficacy grade,Indian mallow [11],"4 (weed kill ratio 70% or more, less than 90%)"
same,N (chickweed) weedkilling efficacy grade,chickweed [12],"4 (weed kill ratio 70% or more, less than 90%)"
same,e (wheat) effect on crop grade,wheat [13],"5 (weed kill ratio 90% or more, (practically complete withering))"
same,F (barnyard grass) weedkilling efficacy grade,barnyard grass [14],"5 (weed kill ratio 90% or more, (practically complete withering))"
same,g (rapeseed) effect on crop grade,rapeseed [15],"5 (weed kill ratio 90% or more, (practically complete withering))"
same,O (catchweed) weedkilling efficacy grade,catchweed [16],"5 (weed kill ratio 90% or more, (practically complete withering))"
same,D (crabgrass) weedkilling efficacy grade,crabgrass [17],"5 (weed kill ratio 90% or more, (practically complete withering))"
same,b (directly sown rice) effect on crop grade,directly sown rice [18],"5 (weed kill ratio 90% or more, (practically complete withering))"
same,a (transplanted rice) effect on crop grade,transplanted rice,"3 (weed kill ratio 40% or more, less than 70%)"
same,G (wild oat) weedkilling efficacy grade,wild oat [19],"5 (weed kill ratio 90% or more, (practically complete withering))"
same,E (green foxtail) weedkilling efficacy grade,green foxtail [20],"5 (weed kill ratio 90% or more, (practically complete withering))"
same,d (soybean) effect on crop grade,soybean [21],"4 (weed kill ratio 70% or more, less than 90%)"
same,J (common wind-grass) weedkilling efficacy grade,common wind-grass [22],"5 (weed kill ratio 90% or more, (practically complete withering))"
same,d (soybean) effect on crop grade,soybean [23],"4 (weed kill ratio 70% or more, less than 90%)"
same,L (redroot pigweed) weedkilling efficacy grade,redroot pigweed [24],"4 (weed kill ratio 70% or more, less than 90%)"
same,O (catchweed) weedkilling efficacy grade,catchweed [25],"5 (weed kill ratio 90% or more, (practically complete withering))"
same,B (bulrush) weedkilling efficacy grade,bulrush [26],"5 (weed kill ratio 90% or more, (practically complete withering))"
same,f (beet) effect on crop grade,beet [27],"1 (weed kill ratio 5% or more, less than 20%)"
same,g (rapeseed) effect on crop grade,rapeseed [28],"4 (weed kill ratio 70% or more, less than 90%)"
same,F (barnyard grass) weedkilling efficacy grade,barnyard grass [29],"5 (weed kill ratio 90% or more, (practically complete withering))"
same,A (barnyard grass) weedkilling efficacy grade,barnyard grass [30],"5 (weed kill ratio 90% or more, (practically complete withering))"
same,E (green foxtail) weedkilling efficacy grade,green foxtail [31],"5 (weed kill ratio 90% or more, (practically complete withering))"
same,I (Italian ryegrass) weedkilling efficacy grade,Italian ryegrass [32],"5 (weed kill ratio 90% or more, (practically complete withering))"
same,J (common wind-grass) weedkilling efficacy grade,common wind-grass [33],"5 (weed kill ratio 90% or more, (practically complete withering))"
same,b (directly sown rice) effect on crop grade,directly sown rice [34],"5 (weed kill ratio 90% or more, (practically complete withering))"
same,K (Indian mallow) weedkilling efficacy grade,Indian mallow [35],"5 (weed kill ratio 90% or more, (practically complete withering))"
same,B (bulrush) weedkilling efficacy grade,bulrush [36],"5 (weed kill ratio 90% or more, (practically complete withering))"
same,C (oval-leafed pondweed) weedkilling efficacy grade,oval-leafed pondweed [37],"5 (weed kill ratio 90% or more, (practically complete withering))"
same,L (redroot pigweed) weedkilling efficacy grade,redroot pigweed [38],"4 (weed kill ratio 70% or more, less than 90%)"
same,f (beet) effect on crop grade,beet [39],"4 (weed kill ratio 70% or more, less than 90%)"
same,H (black-grass) weedkilling efficacy grade,black-grass [40],"5 (weed kill ratio 90% or more, (practically complete withering))"
same,D (crabgrass) weedkilling efficacy grade,crabgrass [41],"5 (weed kill ratio 90% or more, (practically complete withering))"
same,c (corn) effect on crop grade,corn [42],"3 (weed kill ratio 40% or more, less than 70%)"
